Reference: ChEMBL document CHEMBL3616390, “Design and synthesis of N-[6-(Substituted Aminoethylideneamino)-2-Hydroxyindan-1-yl]arylamides as selective and potent muscarinic M₁ agonists” (Bioorg Med Chem Lett, 2015)

Columns and labels:
Format in all cases: functional, cell-based
[1] = biological target: T1, Muscarinic acetylcholine receptor M1 (Homo sapiens, UniProt P11229); assay: Agonist activity at human muscarinic M1 receptor expressed in CHO cells after 30 mins by GTPgamma35S binding assay
T1 sequence (P11229 whole entry): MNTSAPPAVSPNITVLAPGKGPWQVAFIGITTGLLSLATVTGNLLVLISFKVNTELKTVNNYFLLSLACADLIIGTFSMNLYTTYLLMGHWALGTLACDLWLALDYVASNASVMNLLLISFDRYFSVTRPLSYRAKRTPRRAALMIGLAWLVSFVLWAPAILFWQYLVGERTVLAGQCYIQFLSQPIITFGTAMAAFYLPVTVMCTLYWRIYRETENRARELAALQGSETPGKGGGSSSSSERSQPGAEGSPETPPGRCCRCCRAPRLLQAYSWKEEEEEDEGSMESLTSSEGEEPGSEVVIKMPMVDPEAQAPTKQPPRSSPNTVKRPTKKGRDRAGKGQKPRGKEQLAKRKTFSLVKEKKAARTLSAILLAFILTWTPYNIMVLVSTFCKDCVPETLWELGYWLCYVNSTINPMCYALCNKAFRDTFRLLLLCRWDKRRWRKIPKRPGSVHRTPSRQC

[2] = biological target: T2, Muscarinic acetylcholine receptor M2 (Homo sapiens, UniProt P08172); assay: Agonist activity at human muscarinic M2 receptor expressed in CHO cells after 30 mins by GTPgamma35S binding assay
T2 sequence (P08172 whole entry): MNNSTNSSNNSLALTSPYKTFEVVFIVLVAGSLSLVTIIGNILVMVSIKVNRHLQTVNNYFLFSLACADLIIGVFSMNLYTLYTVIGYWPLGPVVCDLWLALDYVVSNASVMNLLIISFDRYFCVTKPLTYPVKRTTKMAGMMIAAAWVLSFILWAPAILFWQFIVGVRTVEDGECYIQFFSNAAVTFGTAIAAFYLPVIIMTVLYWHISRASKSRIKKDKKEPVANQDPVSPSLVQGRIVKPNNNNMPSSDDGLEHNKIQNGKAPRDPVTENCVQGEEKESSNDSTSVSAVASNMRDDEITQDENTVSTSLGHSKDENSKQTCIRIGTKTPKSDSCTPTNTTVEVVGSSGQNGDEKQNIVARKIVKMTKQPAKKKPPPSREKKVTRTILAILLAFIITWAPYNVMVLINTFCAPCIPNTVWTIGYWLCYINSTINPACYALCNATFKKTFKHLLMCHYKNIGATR

[3] = biological target: T3, Muscarinic acetylcholine receptor M3 (Homo sapiens, UniProt P20309); assay: Agonist activity at human muscarinic M3 receptor expressed in CHO cells after 30 mins by GTPgamma35S binding assay
Target sequence in this assay (P20309 whole entry): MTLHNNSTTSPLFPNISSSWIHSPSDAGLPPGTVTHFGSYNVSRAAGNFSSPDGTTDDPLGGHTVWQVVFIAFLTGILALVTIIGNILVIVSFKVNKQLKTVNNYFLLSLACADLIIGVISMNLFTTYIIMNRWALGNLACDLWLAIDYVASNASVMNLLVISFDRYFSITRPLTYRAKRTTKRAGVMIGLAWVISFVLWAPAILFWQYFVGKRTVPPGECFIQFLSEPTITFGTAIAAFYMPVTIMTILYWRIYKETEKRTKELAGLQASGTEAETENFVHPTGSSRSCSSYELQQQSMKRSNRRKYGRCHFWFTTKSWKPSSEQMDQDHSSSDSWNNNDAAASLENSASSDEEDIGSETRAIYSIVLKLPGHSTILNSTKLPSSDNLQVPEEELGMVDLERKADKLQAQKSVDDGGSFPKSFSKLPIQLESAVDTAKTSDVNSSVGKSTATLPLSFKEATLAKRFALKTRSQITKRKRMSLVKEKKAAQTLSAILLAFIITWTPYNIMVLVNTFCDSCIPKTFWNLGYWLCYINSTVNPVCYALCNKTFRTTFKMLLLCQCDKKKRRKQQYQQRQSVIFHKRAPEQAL

[4] = biological target: T4, Muscarinic acetylcholine receptor M4 (Homo sapiens, UniProt P08173); assay: Agonist activity at human muscarinic M4 receptor expressed in CHO cells after 30 mins by GTPgamma35S binding assay
T4 sequence (P08173 whole entry): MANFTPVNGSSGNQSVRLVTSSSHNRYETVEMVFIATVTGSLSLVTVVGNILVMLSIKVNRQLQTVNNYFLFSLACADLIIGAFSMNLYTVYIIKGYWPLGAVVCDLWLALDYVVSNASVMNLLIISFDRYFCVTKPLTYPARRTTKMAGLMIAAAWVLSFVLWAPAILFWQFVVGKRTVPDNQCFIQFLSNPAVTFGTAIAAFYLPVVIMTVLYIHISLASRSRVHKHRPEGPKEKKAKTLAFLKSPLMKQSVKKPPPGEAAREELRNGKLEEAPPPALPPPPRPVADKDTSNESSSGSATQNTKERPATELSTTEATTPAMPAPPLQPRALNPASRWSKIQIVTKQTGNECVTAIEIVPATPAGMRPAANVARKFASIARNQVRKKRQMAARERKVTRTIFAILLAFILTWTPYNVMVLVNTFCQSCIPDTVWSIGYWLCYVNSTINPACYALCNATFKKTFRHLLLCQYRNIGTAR

[5] = biological target: T5, Muscarinic acetylcholine receptor M5 (Homo sapiens, UniProt P08912); assay: Agonist activity at human muscarinic M5 receptor expressed in CHO cells after 30 mins by GTPgamma35S binding assay
T5 sequence (P08912 whole entry): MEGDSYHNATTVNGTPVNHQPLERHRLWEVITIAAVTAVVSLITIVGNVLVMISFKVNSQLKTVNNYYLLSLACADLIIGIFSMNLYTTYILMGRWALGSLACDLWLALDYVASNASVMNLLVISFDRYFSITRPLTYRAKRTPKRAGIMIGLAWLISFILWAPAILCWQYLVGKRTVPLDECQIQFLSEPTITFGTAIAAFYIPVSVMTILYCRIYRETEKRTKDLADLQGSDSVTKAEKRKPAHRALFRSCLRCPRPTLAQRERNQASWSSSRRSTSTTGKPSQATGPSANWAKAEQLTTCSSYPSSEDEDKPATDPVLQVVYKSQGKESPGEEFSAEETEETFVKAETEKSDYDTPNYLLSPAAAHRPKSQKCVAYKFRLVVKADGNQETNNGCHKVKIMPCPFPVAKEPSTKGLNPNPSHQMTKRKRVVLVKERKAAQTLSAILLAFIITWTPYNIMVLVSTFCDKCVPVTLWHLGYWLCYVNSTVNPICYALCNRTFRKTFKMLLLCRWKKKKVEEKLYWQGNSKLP

[6] = biological target: T6, Muscarinic acetylcholine receptor M1 (Homo sapiens) (UniProt P11229); assay: Agonist activity at human muscarinic M1 receptor expressed in CHO cells after 30 mins by GTPgamma35S binding assay relative to oxotremorine-M
T6 sequence (whole entry): T1 sequence (P11229 whole entry)

[7] = biological target: T7, Muscarinic acetylcholine receptor M2 (Homo sapiens) (UniProt P08172); assay: Agonist activity at human muscarinic M2 receptor expressed in CHO cells after 30 mins by GTPgamma35S binding assay relative to oxotremorine-M
T7 sequence (whole entry): T2 sequence (P08172 whole entry)

[8] = biological target: T8, Muscarinic acetylcholine receptor M4 (Homo sapiens) (UniProt P08173); assay: Agonist activity at human muscarinic M4 receptor expressed in CHO cells after 30 mins by GTPgamma35S binding assay relative to oxotremorine-M
T8 sequence (whole entry): T4 sequence (P08173 whole entry)

[9] = biological target: T3, Muscarinic acetylcholine receptor M3; assay: Agonist activity at human muscarinic M3 receptor expressed in CHO cells after 30 mins by GTPgamma35S binding assay relative to acetylcholine
Target sequence in this assay (P20309 whole entry, looked up): as the sequence (P20309 whole entry) above

[10] = biological target: T8, Muscarinic acetylcholine receptor M4 (Homo sapiens); assay: Agonist activity at human muscarinic M4 receptor expressed in CHO cells after 30 mins by GTPgamma35S binding assay relative to acetylcholine
[11] = biological target: T9, Muscarinic acetylcholine receptor M5 (Homo sapiens) (UniProt P08912); assay: Agonist activity at human muscarinic M5 receptor expressed in CHO cells after 30 mins by GTPgamma35S binding assay relative to acetylcholine
T9 sequence (whole entry): T5 sequence (P08912 whole entry)

[12] = biological target: T7, Muscarinic acetylcholine receptor M2 (Homo sapiens); assay: Agonist activity at human muscarinic M2 receptor expressed in CHO cells after 30 mins by GTPgamma35S binding assay relative to acetylcholine

| Compound | EC50 [1] [nM] | EC50 [2] [nM] | EC50 ([3]; cho) | EC50 [4] [nM] | EC50 ([5]; cho) | Efficacy [6] [%] | Efficacy [7] [%] | Efficacy [8] [%] | Efficacy [9] [%] | Efficacy [10] [%] | Efficacy [11] [%] | Efficacy [12] [%] | EC50 ([3]; read-out: EC50) [nM] | EC50 ([5]; read-out: EC50) [nM] |
| --- | --- | --- | --- | --- | --- | --- | --- | --- | --- | --- | --- | --- | --- | --- |
| COc1ccc(CCN/C(C)=N/c2ccc3c(c2)[C@@H](NC(=O)c2ccc(Br)cc2)[C@H](O)C3)cc1 | 426 | 411 | Not Active | 1360 | Not Active | 84.5 | 38.9 | 29.9 | – | – | – | – | – | – |
| CC(=O)OCC[N+](C)(C)C | – | – | – | – | – | – | – | – | 117 | 93.4 | 110 | – | – | – |
| COc1ccc(C(=O)N[C@@H]2c3cc(/N=C(\C)N(C)Cc4ccc(F)cc4)ccc3C[C@H]2O)cc1 | 166 | – | Not Active | – | Not Active | 93.2 | < 20 | < 20 | – | – | – | – | – | – |
| C/C(=N\c1ccc2c(c1)[C@@H](NC(=O)c1ccc(F)cc1)[C@H](O)C2)N(C)Cc1ccc(F)cc1 | 392 | 242 | Not Active | 392 | Not Active | 76.6 | 43.6 | 28.4 | – | – | – | – | – | – |
| C/C(=N\c1ccc2c(c1)[C@@H](NC(=O)c1ccc(C)cc1)[C@H](O)C2)N(C)Cc1ccc(F)cc1 | 49.5 | 65.4 | Not Active | 235 | Not Active | 106 | 45.1 | 41.5 | – | – | – | – | – | – |
| O=C(N[C@@H]1c2cc(/N=C(/Nc3ccc(F)cc3)C(F)(F)F)ccc2C[C@H]1O)c1ccc(Br)cc1 | – | – | Not Active | – | Not Active | < 20 | < 20 | < 20 | – | – | – | – | – | – |
| CO/N=C(\C#N)[C@H]1CN2CCC1CC2 [SABCOMELINE] | 63.6 | 62.1 | – | 214 | – | – | – | – | 28.3 | 21.3 | 38.9 | 87.7 | 117 | 123 |
| C#CCO[C@H]1CN2CCC1CC2 [TALSACLIDINE] | 820 | 849 | – | 844 | – | – | – | – | 26.1 | 22.2 | 23.7 | 94.4 | 2700 | 422 |
| C/C(=N\c1ccc2c(c1)[C@@H](NC(=O)c1ccc(Br)cc1)[C@H](O)C2)N(C)CCc1ccc(F)cc1 | 80.9 | 342 | Not Active | – | Not Active | 68.5 | 20.8 | < 20 | – | – | – | – | – | – |
| COc1ccc(CN/C(C)=N/c2ccc3c(c2)[C@@H](NC(=O)c2ccc(Br)cc2)[C@H](O)C3)cc1 | 837 | – | Not Active | – | Not Active | 32.1 | < 20 | < 20 | – | – | – | – | – | – |
| C/C(=N\c1ccc2c(c1)[C@@H](NC(=O)c1ccc(Br)cc1)[C@H](O)C2)N(C)Cc1ccc(F)cc1 | 154 | 604 | Not Active | 3720 | Not Active | 107 | 30.9 | 34.3 | – | – | – | – | – | – |
| COc1cccc(CN/C(C)=N/c2ccc3c(c2)[C@@H](NC(=O)c2ccc(Br)cc2)[C@H](O)C3)c1 | 198 | – | Not Active | – | Not Active | 60 | < 20 | < 20 | – | – | – | – | – | – |
| C/C(=N\c1ccc2c(c1)[C@@H](NC(=O)c1ccc(Br)cc1)[C@H](O)C2)NCc1ccccc1F | 87 | 118 | Not Active | 227 | Not Active | 78.5 | 33.6 | 25.7 | – | – | – | – | – | – |
| COc1ccc(N/C(C)=N/c2ccc3c(c2)[C@@H](NC(=O)c2ccc(Br)cc2)[C@H](O)C3)cc1 | 105 | – | Not Active | – | Not Active | 35.3 | < 20 | < 20 | – | – | – | – | – | – |
| CCCCCCOc1nsnc1C1=CCCN(C)C1 | – | – | – | – | – | – | – | – | < 20 | 48.7 | 25.9 | 83.5 | – | – |
| CCn1nnc(C2=CCCN(C)C2)n1 | – | – | – | – | – | – | – | – | < 20 | < 20 | < 20 | 49.2 | – | – |
| C/C(=N\c1ccc2c(c1)[C@@H](NC(=O)c1ccc(Br)cc1)[C@H](O)C2)NCCc1ccc(F)cc1 | 183 | 211 | Not Active | – | Not Active | 90.6 | 38.5 | < 20 | – | – | – | – | – | – |
| C/C(=N\c1ccc2c(c1)[C@@H](NC(=O)c1ccc(Cl)cc1)[C@H](O)C2)N(C)Cc1ccc(F)cc1 | 31 | 65.5 | Not Active | 405 | Not Active | 112 | 45 | 42.8 | – | – | – | – | – | – |
| C/C(=N\c1ccc2c(c1)[C@@H](NC(=O)c1ccc(Br)cc1)[C@H](O)C2)NCc1cccc(F)c1 | 48.4 | 435 | Not Active | 355 | Not Active | 94 | 26.6 | 33.4 | – | – | – | – | – | – |
| COc1ccccc1CN/C(C)=N/c1ccc2c(c1)[C@@H](NC(=O)c1ccc(Br)cc1)[C@H](O)C2 | 572 | – | Not Active | – | Not Active | 71.5 | < 20 | < 20 | – | – | – | – | – | – |
| C/C(=N\c1ccc2c(c1)[C@@H](NC(=O)c1ccc(C(F)(F)F)cc1)[C@H](O)C2)N(C)Cc1ccc(F)cc1 | 36 | 172 | Not Active | 393 | Not Active | 106 | 25.4 | 30.8 | – | – | – | – | – | – |
